# Results published in patent US20100216120A1, “Rapid infectious virus assay” (priority 2009, published 2010).
# Legend:
# [1] = test system: infectious HIV from monocytes; test: ATP-triggered release of infectious virus from CD8-depleted PBMC monocytes, TZM reporter cell luciferase readout, no fibronectin coating; type: cell-based, Human Immunodeficiency Virus (HIV); conditions: ATP 1-5 mM, absence of fibronectin coating, 200 k CD8-depleted PBMCs, 3 days; HIV-positive vs negative individuals
# Protocol: ATP (1 mM) was then added in a volume of 100 ul for a 3 hrs at 37° C. TZMs (10K) were then added on to the wells in 100 ul in RPMI 10%. After 3 days later, the supernatants were removed and steady-glo reagent was added on to the TZMs and read on a Spectramax.
# The inventors tested the ability of ATP (1-5 mM) to release infectious virus from monocytes in absence of fibronectin coating on to the tissue culture wells. […] Further differentiation and/or activation is useful to enhance virus release.
# [2] = test system: infectious HIV from monocytes; test: Rapid Infectious Viral Assay (RIVA): virus release from monocytes on fibronectin-coated wells, TZM-bl reporter cell luciferase readout; type: cell-based, Human Immunodeficiency Virus (HIV); conditions: ATP 1 mM
# Protocol: The plates were then coated with fibronectin and BSA. 150 k CD8-depleted PBMCs were added on to a 96-well for 3 hrs followed by washings using RPMI 10%. ATP (1 mM) was then added in a volume of 100 ul for a 3 hrs at 37° C. TZMs (15K) were then added on to the wells the next day. 5 days later after launch, the supernatants were removed and steady-glo reagent was added on to the TZMs and read on a Spectramax.
# ATP (1 mM) was then added in a volume of 100 ul for a 3 hrs at 37° C. TZMs (10K) were then added on to the wells. 4 days later after launch, the supernatants were removed and steady-glo reagent was added on to the TZMs and read on a Spectramax.
# ATP (1 mM) was then added in a volume of 100 ul for a 3 hrs at 37° C. TZMs (10K) were then added on to the wells. 3 days later after launch, the supernatants were removed and steady-glo reagent was added on to the TZMs and read on a Spectramax.
# ATP (1 mM) was then added in a volume of 100 ul for a 3 hrs at 37° C. TZMs (20K) were then added on to the wells. 3 days later after launch, the supernatants were removed and steady-glo reagent was added on to the TZMs and read on a Spectramax.
# In a preferred embodiment, CD8-depleted PBMC were isolated from HIV-negative donors and HIV patients with VL<50 copies/ml using Dynal beads. Peripheral monocytes (CD14) were used in a rapid infectious assay using TZM-bl coculture technique. The inventors compare this shorter infection assay to classical method of PBMC activation with anti CD3/CD28 antibodies. Major CCR5 blockers were addressed. Presence of infectious virus was also investigated using FACS and rtPCR.
# FIG. 2 illustrates a test of the ability of ATP (1 mM) to release infectious virus from monocytes in presence of fibronectin coating on to the tissue culture wells. The HIV infectivity was measured by measuring the RLU on a Spectramax M5 plate readert.
# 1. A 96 well plate (a 48 well can be used) is coated with 100 ul RPMI containing fibronectin (50 ug/ml) in BSA (0.5%) for 30 minutes at room temperature.
# 2. CD8-depleted PBMC's which have been frozen at 2 million cells per ml and stored at −80 C in 22% FBS and 10% DMSO are thawed quickly and about 100 ul containing 200 k cells are added to the wells immediately
# 3. Let cells of interest attach for 2 hours (longer even overnight up to 20 hrs can be used)
# 4. Remove all the media which contains non-adherent cells and wash with 200 ul of RPMI with 10% FBS, pipetting gently, removing this wash media. The adherent monocytes remain.
# 5. […]
# 7. Finally quantitate how much viral infection has occurred by reading luciferase production using Steady Glow reagent (Promega) and a luminometer/spectrophotometer. […]
smiles,measurement,setting,value
Nc1ncnc2c1ncn2[C@@H]1O[C@H](COP(=O)(O)OP(=O)(O)OP(=O)(O)O)[C@@H](O)[C@H]1O [ATP],release of infectious virus from monocytes (RLU on TZMs),[1],incapable of triggering release of viral particles from monocytes
same,release of infectious virus from monocytes (RLU on TZMs),"[2]; fibronectin and BSA coating, 100 k CD8-depleted PBMCs O/N, 3-day assay (Format #3)",triggers the release of the virus
same,release of infectious virus from monocytes (RLU on TZMs),"[2]; fibronectin and BSA coating, 100 k CD8-depleted PBMCs O/N, 4-day assay (Format #2)",triggers the release of the virus
same,release of infectious virus from monocytes (RLU on TZMs),"[2]; fibronectin and BSA coating, 225 k cells, 48-well, 4-day assay (Format #4)",triggers the release of the virus
same,release of infectious virus from monocytes (RLU on TZMs),"[2]; fibronectin coating, 150 k CD8-depleted PBMCs, 5 day assay (Format #1)",capable of triggering release of viral particles from monocytes
